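1) Cells in 96-well plates. 2) Compound, 48 h, 5 concentrations. 3) Linear interpolation between surrounding doses. 4) Unreached endpoint = highest concentration. TGI: concentration producing complete growth inhibition.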
Legend:
Test in all cases: NCI anticancer screen, dose series, 48 h
EKVX NSCLC = tested on: EKVX NSCLC
UACC-62 melanoma = tested on: UACC-62 melanoma
K-562 leukemia = tested on: K-562 leukemia
NCI-H522 lung = tested on: NCI-H522 lung
COLO 205 colon = tested on: COLO 205 colon
SR leukemia = tested on: SR leukemia
SK-MEL-5 melanoma = tested on: SK-MEL-5 melanoma
HT29 colon = tested on: HT29 colon
OVCAR-4 ovarian = tested on: OVCAR-4 ovarian
DMS 114 small cell lung = tested on: DMS 114 small cell lung
SK-MEL-28 melanoma = tested on: SK-MEL-28 melanoma
SNB-78 CNS = tested on: SNB-78 CNS
SW-620 colon = tested on: SW-620 colon
KM12 colon = tested on: KM12 colon
LXFL 529 NSCLC = tested on: LXFL 529 NSCLC
OVCAR-8 ovarian = tested on: OVCAR-8 ovarian
OVCAR-5 ovarian = tested on: OVCAR-5 ovarian
SNB-19 CNS = tested on: SNB-19 CNS
M14 melanoma = tested on: M14 melanoma
MOLT-4 leukemia = tested on: MOLT-4 leukemia
HOP-18 NSCLC = tested on: HOP-18 NSCLC
SF-539 CNS = tested on: SF-539 CNS
HCT-116 colon = tested on: HCT-116 colon
SN12C renal = tested on: SN12C renal
ACHN renal = tested on: ACHN renal
KM20L2 colon = tested on: KM20L2 colon
U251 CNS = tested on: U251 CNS
RXF 393 renal = tested on: RXF 393 renal
LOX IMVI melanoma = tested on: LOX IMVI melanoma
SF-268 CNS = tested on: SF-268 CNS
OVCAR-3 ovarian = tested on: OVCAR-3 ovarian
786-0 renal = tested on: 786-0 renal
UO-31 renal = tested on: UO-31 renal
A549 NSCLC = tested on: A549 NSCLC
HCC-2998 colon = tested on: HCC-2998 colon
A498 renal = tested on: A498 renal
TK-10 renal = tested on: TK-10 renal
DLD-1 colon = tested on: DLD-1 colon
SF-295 CNS = tested on: SF-295 CNS
IGROV1 ovarian = tested on: IGROV1 ovarian
HOP-62 NSCLC = tested on: HOP-62 NSCLC
NCI-H460 lung = tested on: NCI-H460 lung
MALME-3M melanoma = tested on: MALME-3M melanoma
SK-MEL-2 melanoma = tested on: SK-MEL-2 melanoma
DMS 273 small cell lung = tested on: DMS 273 small cell lung
UACC-257 melanoma = tested on: UACC-257 melanoma
XF 498 CNS = tested on: XF 498 CNS
CAKI-1 renal = tested on: CAKI-1 renal
NCI-H226 lung = tested on: NCI-H226 lung
NCI-H23 lung = tested on: NCI-H23 lung
RPMI-8226 leukemia = tested on: RPMI-8226 leukemia
HCT-15 colon = tested on: HCT-15 colon
SNB-75 CNS = tested on: SNB-75 CNS
HL-60(TB) leukemia = tested on: HL-60(TB) leukemia
CCRF-CEM leukemia = tested on: CCRF-CEM leukemia
HOP-92 NSCLC = tested on: HOP-92 NSCLC
M19-MEL melanoma = tested on: M19-MEL melanoma
SK-OV-3 ovarian = tested on: SK-OV-3 ovarian

O=C(c1ccccc1)c1ccc2cccc(OC3OC(CO)C(O)C(O)C3O)c2n1 (centres undefined)
TGI (EKVX NSCLC): > 100 µM | TGI (UACC-62 melanoma): > 100 µM | TGI (K-562 leukemia): > 100 µM | TGI (NCI-H522 lung): > 100 µM | TGI (COLO 205 colon): > 100 µM | TGI (SR leukemia): > 100 µM | TGI (SK-MEL-5 melanoma): > 100 µM | TGI (HT29 colon): > 100 µM | TGI (OVCAR-4 ovarian): > 100 µM | TGI (DMS 114 small cell lung): > 100 µM | TGI (SK-MEL-28 melanoma): > 100 µM | TGI (SNB-78 CNS): > 100 µM | TGI (SW-620 colon): > 100 µM | TGI (KM12 colon): > 100 µM | TGI (LXFL 529 NSCLC): > 100 µM | TGI (OVCAR-8 ovarian): > 100 µM | TGI (OVCAR-5 ovarian): > 100 µM | TGI (SNB-19 CNS): > 100 µM | TGI (M14 melanoma): > 100 µM | TGI (MOLT-4 leukemia): > 100 µM | TGI (HOP-18 NSCLC): > 100 µM | TGI (SF-539 CNS): > 100 µM | TGI (HCT-116 colon): > 100 µM | TGI (SN12C renal): > 100 µM | TGI (ACHN renal): > 100 µM | TGI (KM20L2 colon): > 100 µM | TGI (U251 CNS): > 100 µM | TGI (RXF 393 renal): > 100 µM | TGI (LOX IMVI melanoma): > 100 µM | TGI (SF-268 CNS): > 100 µM | TGI (OVCAR-3 ovarian): > 100 µM | TGI (786-0 renal): > 100 µM | TGI (UO-31 renal): > 100 µM | TGI (A549 NSCLC): > 100 µM | TGI (HCC-2998 colon): > 100 µM | TGI (A498 renal): 82 µM | TGI (TK-10 renal): > 100 µM | TGI (DLD-1 colon): > 100 µM | TGI (SF-295 CNS): > 100 µM | TGI (IGROV1 ovarian): > 100 µM | TGI (HOP-62 NSCLC): > 100 µM | TGI (NCI-H460 lung): > 100 µM | TGI (MALME-3M melanoma): > 100 µM | TGI (SK-MEL-2 melanoma): > 100 µM | TGI (DMS 273 small cell lung): > 100 µM | TGI (UACC-257 melanoma): > 100 µM | TGI (XF 498 CNS): > 100 µM | TGI (CAKI-1 renal): > 100 µM | TGI (NCI-H226 lung): > 100 µM | TGI (NCI-H23 lung): > 100 µM | TGI (RPMI-8226 leukemia): > 100 µM | TGI (HCT-15 colon): > 100 µM | TGI (SNB-75 CNS): > 100 µM

Cc1cccc(C)c1NC(=O)C(=O)C(C#N)c1ccccc1 (centres undefined)
TGI (EKVX NSCLC): > 100 µM | TGI (UACC-62 melanoma): > 100 µM | TGI (K-562 leukemia): > 100 µM | TGI (NCI-H522 lung): > 100 µM | TGI (COLO 205 colon): > 100 µM | TGI (SK-MEL-5 melanoma): > 100 µM | TGI (HT29 colon): > 100 µM | TGI (OVCAR-4 ovarian): > 100 µM | TGI (DMS 114 small cell lung): > 100 µM | TGI (SK-MEL-28 melanoma): > 100 µM | TGI (SNB-78 CNS): > 100 µM | TGI (SW-620 colon): > 100 µM | TGI (KM12 colon): > 100 µM | TGI (LXFL 529 NSCLC): > 100 µM | TGI (OVCAR-8 ovarian): > 100 µM | TGI (OVCAR-5 ovarian): > 100 µM | TGI (SNB-19 CNS): > 100 µM | TGI (M14 melanoma): > 100 µM | TGI (MOLT-4 leukemia): > 100 µM | TGI (HOP-18 NSCLC): > 100 µM | TGI (HL-60(TB) leukemia): > 100 µM | TGI (SF-539 CNS): > 100 µM | TGI (CCRF-CEM leukemia): > 100 µM | TGI (HOP-92 NSCLC): > 100 µM | TGI (HCT-116 colon): > 100 µM | TGI (SN12C renal): > 100 µM | TGI (ACHN renal): > 100 µM | TGI (KM20L2 colon): > 100 µM | TGI (U251 CNS): > 100 µM | TGI (RXF 393 renal): > 100 µM | TGI (LOX IMVI melanoma): > 100 µM | TGI (M19-MEL melanoma): > 100 µM | TGI (SF-268 CNS): > 100 µM | TGI (OVCAR-3 ovarian): > 100 µM | TGI (786-0 renal): > 100 µM | TGI (UO-31 renal): > 100 µM | TGI (A549 NSCLC): > 100 µM | TGI (HCC-2998 colon): > 100 µM | TGI (A498 renal): > 100 µM | TGI (TK-10 renal): > 100 µM | TGI (DLD-1 colon): > 100 µM | TGI (SF-295 CNS): > 100 µM | TGI (IGROV1 ovarian): > 100 µM | TGI (HOP-62 NSCLC): > 100 µM | TGI (NCI-H460 lung): > 100 µM | TGI (SK-OV-3 ovarian): > 100 µM | TGI (MALME-3M melanoma): > 100 µM | TGI (SK-MEL-2 melanoma): > 100 µM | TGI (DMS 273 small cell lung): > 100 µM | TGI (UACC-257 melanoma): > 100 µM | TGI (XF 498 CNS): > 100 µM | TGI (CAKI-1 renal): > 100 µM | TGI (NCI-H226 lung): > 100 µM | TGI (NCI-H23 lung): > 100 µM | TGI (HCT-15 colon): > 100 µM | TGI (SNB-75 CNS): > 100 µM
